Where two headings read alike, the source gives them in different places.
Tests used:
Assay type in all cases: biochemical
[1] = molecular target: KDR kinase (Homo sapiens, UniProt P35968, DEL940-989/E990V); assay: KDR kinase assay K1
Method: (§1) IC50 values were calculated from a series of percent inhibition values determined at a range of inhibitor concentrations using software routines as implemented in the GraphPad Prism software package.

[2] = molecular target: T1, Abl kinase (Homo sapiens, UniProt P00519); assay: Abl kinase assay A1
T1 sequence (P00519 229-512): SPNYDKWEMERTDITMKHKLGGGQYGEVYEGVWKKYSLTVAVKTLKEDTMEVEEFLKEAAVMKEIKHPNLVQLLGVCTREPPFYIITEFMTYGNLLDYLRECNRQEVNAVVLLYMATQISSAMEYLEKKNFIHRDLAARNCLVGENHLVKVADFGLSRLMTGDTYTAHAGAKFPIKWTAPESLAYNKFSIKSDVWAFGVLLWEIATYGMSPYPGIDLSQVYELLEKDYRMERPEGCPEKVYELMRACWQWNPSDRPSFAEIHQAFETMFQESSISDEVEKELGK
Method: as §1

[3] = molecular target: T2, phospho p-38 alpha kinase (Homo sapiens, UniProt Q16539); assay: P-38 alpha kinase assay (spectrophotometric, pyruvate kinase/lactate dehydrogenase coupled); details: Table 5; for IC50: assay not named, read-out: uM
T2 construct: purchased Panvera

[4] = molecular target: phosphorylated p-38-alpha kinase (Homo sapiens, UniProt Q16539); assay: P-38 alpha kinase assay P1; details: Method P1; 2 h pre-incubation before ATP
[5] = molecular target: B-Raf(V599E) kinase (Homo sapiens, UniProt P15056, V600E); assay: B-Raf(V599E) kinase assay B1; details: for IC50: Method B1, construct 1; for inhibition at 1 µM: read-out: Results, % @ concentration μM
Method: The test compounds were incubated with the reaction mixture at 30° C. for 2 h. […] The reaction rate was calculated using the 1.5 h to 2.5 h time frame. […] IC50 values were calculated from a series of percent inhibition values determined at a range of inhibitor concentrations using software routines as implemented in the GraphPad Prism software package.

[6] = read-out: Results, % @ concentration μM
[7] = Method A1, read-out: Results, μM (IC50)
[8] = read-out: Results, % @ concentration μM, Method K1, @ 10 μM
[9] = read-out: Results, % @ concentration μM, Method A1, @ 10 μM

Chain of phosphorylated p-38-alpha kinase (Q16539 1-360 isoform Q16539-2): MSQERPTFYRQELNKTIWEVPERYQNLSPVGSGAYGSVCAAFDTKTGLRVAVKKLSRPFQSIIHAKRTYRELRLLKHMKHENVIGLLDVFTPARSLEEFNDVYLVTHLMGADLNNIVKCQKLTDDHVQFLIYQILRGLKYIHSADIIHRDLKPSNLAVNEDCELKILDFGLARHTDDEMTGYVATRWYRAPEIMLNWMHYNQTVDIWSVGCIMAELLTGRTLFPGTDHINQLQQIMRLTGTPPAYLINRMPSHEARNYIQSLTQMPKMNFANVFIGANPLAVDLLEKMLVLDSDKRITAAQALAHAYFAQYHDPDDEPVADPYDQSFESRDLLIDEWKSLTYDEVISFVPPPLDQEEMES
Chain of KDR kinase (P35968 with tags, fused parts or gaps DEL940-989/E990V): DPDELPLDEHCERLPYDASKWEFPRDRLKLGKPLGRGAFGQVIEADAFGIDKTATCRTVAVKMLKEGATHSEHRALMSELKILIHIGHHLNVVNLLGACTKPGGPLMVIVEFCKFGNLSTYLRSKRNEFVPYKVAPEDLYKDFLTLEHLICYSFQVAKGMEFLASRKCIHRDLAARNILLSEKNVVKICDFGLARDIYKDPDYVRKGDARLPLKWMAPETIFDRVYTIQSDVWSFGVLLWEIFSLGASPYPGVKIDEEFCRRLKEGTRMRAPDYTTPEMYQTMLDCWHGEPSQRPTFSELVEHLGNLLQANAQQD
Chain of B-Raf(V599E) kinase (P15056 with tags, fused parts or gaps V600E): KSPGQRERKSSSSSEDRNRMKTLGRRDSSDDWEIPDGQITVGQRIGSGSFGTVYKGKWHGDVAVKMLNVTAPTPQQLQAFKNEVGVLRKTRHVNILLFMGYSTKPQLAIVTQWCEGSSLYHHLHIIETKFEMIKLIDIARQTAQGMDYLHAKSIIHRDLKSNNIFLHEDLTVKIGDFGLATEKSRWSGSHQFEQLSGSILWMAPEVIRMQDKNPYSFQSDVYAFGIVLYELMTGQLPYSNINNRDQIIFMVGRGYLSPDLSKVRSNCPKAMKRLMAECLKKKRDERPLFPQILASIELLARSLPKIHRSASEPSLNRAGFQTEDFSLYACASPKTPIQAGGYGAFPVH
T2 sequence (Q16539 whole entry): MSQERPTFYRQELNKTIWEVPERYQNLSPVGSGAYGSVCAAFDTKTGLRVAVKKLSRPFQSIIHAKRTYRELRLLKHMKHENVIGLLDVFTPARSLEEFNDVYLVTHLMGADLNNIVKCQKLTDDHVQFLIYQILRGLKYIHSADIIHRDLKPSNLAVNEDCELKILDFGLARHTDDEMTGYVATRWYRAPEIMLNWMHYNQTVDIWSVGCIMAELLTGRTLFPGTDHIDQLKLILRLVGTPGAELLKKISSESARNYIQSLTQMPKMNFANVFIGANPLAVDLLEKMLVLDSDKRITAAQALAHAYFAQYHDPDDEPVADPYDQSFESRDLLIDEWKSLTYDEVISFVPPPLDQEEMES

## CN(C)[C@H]1CCN(C(=O)Cc2cccc(-n3nc(C(C)(C)C)cc3NC(=O)Nc3cccc(Cl)c3Cl)c2)C1 [Example 465, 1-(3-tert-butyl-1-(3-(2-((S)-3-(dimethylamino)pyrrolidin-1-yl)-2-oxoethyl)phenyl)-1H-pyrazol-5-yl)-3-(2,3-dichlorophenyl)urea]
[1]; [6]
  inhibition at 10 µM: 91%
[2]
  IC50: 1.2 µM

## CN(C)[C@@H]1CCN(C(=O)Cc2cccc(-n3nc(C(C)(C)C)cc3NC(=O)Nc3cccc(Cl)c3Cl)c2)C1 [Example 464, 1-(3-tert-butyl-1-(3-(2-((R)-3-(dimethylamino)pyrrolidin-1-yl)-2-oxoethyl)phenyl)-1H-pyrazol-5-yl)-3-(2,3-dichlorophenyl)urea]
[1]; [6]
  inhibition at 10 µM: 85%
[2]; [6]
  inhibition at 10 µM: 82%

## NC(=O)Cc1ccc(-n2nc(C3CCCC3)cc2NC(=O)Nc2cccc(Cl)c2Cl)cc1 [Example 467, 1-(1-(4-(2-amino-2-oxoethyl)phenyl)-3-cyclopentyl-1H-pyrazol-5-yl)-3-(2,3-dichlorophenyl)urea]
[3]
  IC50: 0.119 µM
[4]
  IC50: 0.011 µM
[1]; Method K1
  IC50: 2.9 µM
[5]
  IC50: 0.032 µM
[2]; [7]
  IC50: 4.8 µM

## NC(=O)Cc1cccc(-c2ccc(C(F)(F)F)cc2NC(=O)Nc2ccc(-c3cccc4c3CNC4=O)cc2)c1 [Example 483, [1,1′-biphenyl]-2′-(3-(4-(1-oxoisoindolin-4-yl)phenyl)ureido)-4′-(trifluoromethyl)-3-acetic acid amide]
[3]
  IC50: 0.27 µM
[4]
  IC50: 0.027 µM
[1]; Method K1
  IC50: 0.21 µM
[5]
  IC50: 0.014 µM
[2]; [7]
  IC50: 11.3 µM

## CCOC(=O)Cc1ccc(-n2nc(C3CCCC3)cc2NC(=O)Nc2cccc(Cl)c2Cl)cc1 [Example 437, ethyl 2-(4-(3-cyclopentyl-5-(3-(2,3-dichlorophenyl)ureido)-1H-pyrazol-1-yl)phenyl)acetate]
[1]; [8]
  inhibition at 10 µM: 32%
[5]
  IC50: 0.16 µM
[2]; [9]
  inhibition at 10 µM: 21%

## CC(C)(C)c1cc(NC(=O)Nc2cc(F)c(F)cc2F)n(-c2cccc(CC(N)=O)c2)n1 [Example 494, 1-(1-(3-(2-amino-2-oxoethyl)phenyl)-3-tert-butyl-1H-pyrazol-5-yl)-3-(2,4,5-trifluorophenyl)urea]
[3]
  IC50: 0.67 µM
[4]
  IC50: 0.068 µM
[1]; [8]
  inhibition at 10 µM: 82%
[5]
  IC50: 0.007 µM
[2]; [9]
  inhibition at 10 µM: 96%

## CN(C)[C@@H]1CCN(C(=O)Cc2ccc(-n3nc(C(C)(C)C)cc3NC(=O)Nc3cccc(Cl)c3Cl)cc2)C1 [Example 481, (R)-1-(3-tert-butyl-1-(4-(2-(3-(dimethylamino)pyrrolidin-1-yl)-2-oxoethyl)phenyl)-1H-pyrazol-5-yl)-3-(2,3-dichlorophenyl)urea]
[1]; Method K1, @ 10 μM
  Results, % @ concentration μM: 102% @10
[5]
  IC50: 0.041 µM
[2]; Method A1, @ 10 μM
  Results, % @ concentration μM: 93% @10

## CC(C)(C)c1cc(NC(=O)Nc2ccc(F)cc2F)n(-c2ccc(CC(N)=O)cc2)n1 [Example 498, 1-(1-(4-(2-amino-2-oxoethyl)phenyl)-3-tert-butyl-1H-pyrazol-5-yl)-3-(2,4-difluorophenyl)urea]
[3]; @ 1 uM
  % @ concentration, uM: 25% @1
[4]
  IC50: 0.041 µM
[1]; [8]
  inhibition at 10 µM: 60%
[5]
  IC50: 0.074 µM
[2]; [9]
  inhibition at 10 µM: 48%

## CC(C)(C)c1cc(NC(=O)Nc2ccc(F)cc2F)n(-c2ccc(CC(=O)O)cc2)n1 [Example 497, 2-(4-(3-tert-butyl-5-(3-(2,4-difluorophenyl)ureido)-1H-pyrazol-1-yl)phenyl)acetic acid]
[1]; [8]
  inhibition at 10 µM: 43%
[5]
  IC50: 0.045 µM
[2]; [9]
  inhibition at 10 µM: 30%

## CC(C)(C)c1cc(NC(=O)Nc2cccc(Cl)c2Cl)n(-c2cccc(CN3C(=O)NC(=O)C3=O)c2)n1 [Example 482, 1-(3-tert-butyl-1-(3-((2,4,5-trioxoimidazolidin-1-yl)methyl)phenyl)-1H-pyrazol-5-yl)-3-(2,3-dichlorophenyl)urea]
[3]
  IC50: 0.084 µM
[1]; Method K1
  IC50: 1.4 µM
[5]
  IC50: 0.0038 µM
[2]; [7]
  IC50: 3.2 µM

## CC(C)(C)c1cc(NC(=O)Nc2cccc(-c3cccnc3)c2)n(-c2cccc(CC(N)=O)c2)n1 [Example 507, 1-(1-(3-(2-amino-2-oxoethyl)phenyl)-3-tert-butyl-1H-pyrazol-5-yl)-3-(3-(pyridin-3-yl)phenyl)urea]
[3]
  IC50: 0.007 µM
[4]
  IC50: 0.18 µM
[5]
  IC50: 0.035 µM
[2]; [7]
  IC50: 23.3 µM

## O=C(O)Cc1ccc(-n2nc(C3CCCC3)cc2NC(=O)Nc2cccc(Cl)c2Cl)cc1 [Example 441, 2-(4-(3-cyclopentyl-5-(3-(2,3-dichlorophenyl)ureido)-1H-pyrazol-1-yl)phenyl)acetic acid]
[4]
  IC50: 0.005 µM
[1]; [8]
  inhibition at 10 µM: 62%
[5]
  IC50: 0.037 µM
[2]; [9]
  inhibition at 10 µM: 44%

## CC(C)(C)c1cc(NC(=O)Nc2ccc(F)c(F)c2F)n(-c2ccc(CC(=O)O)cc2)n1 [Example 492, 2-(4-(3-tert-butyl-5-(3-(2,3,4-trifluorophenyl)ureido)-1H-pyrazol-1-yl)phenyl)acetic acid]
[3]
  IC50: 0.04 µM
[4]
  IC50: 0.008 µM
[1]; [8]
  inhibition at 10 µM: 50%
[5]
  IC50: 0.028 µM
[2]; [9]
  inhibition at 10 µM: 49%

## NC(=O)Cc1cccc(-n2nc(-c3ccccc3)cc2NC(=O)Nc2cccc(Oc3cccnc3)c2)c1 [Example 501, 1-(1-(3-(2-amino-2-oxoethyl)phenyl)-3-phenyl-1H-pyrazol-5-yl)-3-(3-(pyridin-3-yloxy)phenyl)urea]
[4]
  IC50: 0.076 µM
[1]; Method K1
  IC50: 1.6 µM
[2]; [7]
  IC50: 2.5 µM

## CC(C)(C)c1cc(NC(=O)Nc2cccc(Cl)c2Cl)n(-c2ccc(CC(=O)N3CC[C@H](O)C3)cc2)n1 [Example 478, (S)-1-(3-tert-butyl-1-(4-(2-(3-hydroxypyrrolidin-1-yl)-2-oxoethyl)phenyl)-1H-pyrazol-5-yl)-3-(2,3-dichlorophenyl)urea]
[4]
  IC50: 0.006 µM
[1]; [8]
  inhibition at 10 µM: 99%
[5]
  IC50: 0.028 µM
[2]; [9]
  inhibition at 10 µM: 91%

## O=C(O)Cc1cccc(-n2nc(C3CCCC3)cc2NC(=O)Nc2cccc(Cl)c2Cl)c1 [Example 434, 2-(3-(3-cyclopentyl-5-(3-(2,3-dichlorophenyl)ureido)-1H-pyrazol-1-yl)phenyl)acetic acid]
[3]
  IC50: 1.9 µM
[4]
  IC50: 0.004 µM
[1]; Method K1
  IC50: 2.9 µM
[5]
  IC50: 0.006 µM
[2]; [7]
  IC50: 3.9 µM

## O=C(Nc1cccc(Cl)c1Cl)Nc1cc(-c2cccs2)nn1-c1cccc(CC(=O)N2CC[C@H](O)C2)c1 [Example 463, 1-(2,3-dichlorophenyl)-3-(1-(3-(2-((S)-3-hydroxypyrrolidin-1-yl)-2-oxoethyl)phenyl)-3-(thiophen-2-yl)-1H-pyrazol-5-yl)urea]
[3]
  IC50: 0.056 µM
[4]
  IC50: 0.025 µM
[1]; [8]
  inhibition at 10 µM: 47%
[5]
  inhibition at 1 µM: 23%
[2]; [9]
  inhibition at 10 µM: 44%

## CC(C)(C)c1cc(NC(=O)Nc2ccc(F)cc2F)n(-c2cccc(CC(N)=O)c2)n1 [Example 496, 1-(1-(3-(2-amino-2-oxoethyl)phenyl)-3-tert-butyl-1H-pyrazol-5-yl)-3-(2,4-difluorophenyl)urea]
[1]; Method K1
  IC50: 2.4 µM
[5]
  IC50: 0.01 µM
[2]; [9]
  inhibition at 10 µM: 66%

## CC(C)(C)c1cc(NC(=O)Nc2cccc(F)c2F)n(-c2cccc(CC(N)=O)c2)n1 [Example 495, 1-(1-(3-(2-amino-2-oxoethyl)phenyl)-3-tert-butyl-1H-pyrazol-5-yl)-3-(2,3-difluorophenyl)urea]
[3]
  IC50: 0.25 µM
[4]
  IC50: 0.038 µM
[5]
  IC50: 0.009 µM
[2]; [7]
  IC50: 7.6 µM

## CC(C)(C)c1cc(NC(=O)Nc2cccc(Oc3cnccn3)c2)n(-c2cccc(CC(N)=O)c2)n1 [Example 504, 1-(1-(3-(2-amino-2-oxoethyl)phenyl)-3-tert-butyl-1H-pyrazol-5-yl)-3-(3-(pyrazin-2-yloxy)phenyl)urea]
[4]
  IC50: 0.082 µM
[1]; Method K1
  IC50: 0.049 µM
[5]
  IC50: 0.043 µM
[2]
  IC50: 0.063 µM

## O=C(O)Cc1cccc(-n2nc(-c3ccccc3F)cc2NC(=O)Nc2cccc(Cl)c2Cl)c1 [Example 433, 2-(3-(5-(3-(2,3-dichlorophenyl)ureido)-3-(2-fluorophenyl)-1H-pyrazol-1-yl)phenyl)acetic acid]
[4]
  IC50: 0.007 µM
[1]; [8]
  inhibition at 10 µM: 63%
[5]
  inhibition at 1 µM: 37%
[2]; [9]
  inhibition at 10 µM: 39%

## CN(C)[C@@H]1CCN(C(=O)Cc2ccc(-n3nc(C(C)(C)C)cc3NC(=O)Nc3cccc(Cl)c3Cl)cc2)C1 [Example 480, (R)-1-(3-tert-butyl-1-(4-(2-(3-(dimethylamino)pyrrolidin-1-yl)-2-oxoethyl)phenyl)-1H-pyrazol-5-yl)-3-(2,3-dichlorophenyl)urea]
[1]; [8]
  inhibition at 10 µM: 92%
[5]
  IC50: 0.029 µM
[2]; [9]
  inhibition at 10 µM: 94%

## O=C(Nc1ccc(F)c(F)c1F)Nc1cc(-c2cccs2)nn1-c1cccc(CO)c1 [Example 493, 1-(1-(3-(hydroxymethyl)phenyl)-3-(thiophen-2-yl)-1H-pyrazol-5-yl)-3-(2,3,4-trifluorophenyl)urea]
[3]; @ 1 uM
  % @ concentration, uM: 36%
[3]; @ 10 uM
  % @ concentration, uM: 73%
[1]; [8]
  inhibition at 10 µM: 82%
[2]; read-out: Results, % @ concentration μM, Method A1, @ 1 μM
  inhibition at 1 µM: 17%

Reference: patent US20090312349A1, “ANTI-INFLAMMATORY MEDICAMENTS” (priority 2004, published 2009)
